Source: patent US4849429A, “Certain 1,4-dihydro-2,6-dilower-alkyl-4-(mono-substituted pyridyl) useful for treating coronary artery or cerebral artery disease” (The Green Cross Corporation, priority 1985, dated 1989)
Where two headings read alike, the source gives them in different places.

Experiment: Test 2: blood pressure depression up to 24 hours and duration until 50% recovery, oral
Assay type: in vivo, Male, spontaneously hypertension-developing rats
Conditions: for response vs control in vivo at 25 mg/kg: Rattus norvegicus, percent based on that before administration (100); for Duration 50% recovery: duration until pressure recovered to 50% from the maximum depression value
Procedure: Male, spontaneously hypertension-developing rats of ages of 10 to 11 weeks (in groups of 3 to 5 animals) were used in the test. For blood pressure determination, systolic pressure was measured without anesthesia by an indirect tail-cuff method using a sphygmomanometer (PE-300, Narco Bio-System).

[1] = 1h after oral administration, read-out: Depression value (%) of blood pressure, 1h
[2] = 2h after oral administration, read-out: Depression value (%) of blood pressure, 2h
[3] = 4h after oral administration, read-out: Depression value (%) of blood pressure, 4h
[4] = 7h after oral administration, read-out: Depression value (%) of blood pressure, 7h
[5] = 24h after oral administration, read-out: Depression value (%) of blood pressure, 24h
[6] = maximum lowering, read-out: Depression value (%) of blood pressure, Max

Structure (SMILES): COC(=O)C1=C(C)NC(C)=C(C(=O)OCCN(C)Cc2ccccc2)C1c1ncccc1[N+](=O)[O-] (stereo not drawn) [(1), 2,6-Dimethyl-4-(3-nitro-2-pyridyl)-1,4-dihydropyridine-3,5-dicarboxylicacid 3-β-(N-benzyl-N-methylamino)ethyl ester 5-methyl ester]
- response vs control in vivo at 25 mg/kg [1]: 65%
- response vs control in vivo at 25 mg/kg [2]: 68%
- response vs control in vivo at 25 mg/kg [3]: 76%
- response vs control in vivo at 25 mg/kg [4]: 81%
- response vs control in vivo at 25 mg/kg [5]: 96%
- response vs control in vivo at 25 mg/kg [6]: 65%
- Duration 50% recovery: 8.7 h

Structure (SMILES): COC(=O)C1=C(C)NC(C)=C(C(=O)OCCN(C)Cc2ccccc2)C1c1cc(Br)ccn1 (stereo not drawn) [(2), 2,6-Dimethyl-4-(4-bromo-2-pyridyl)-1,4-dihydropyridine-3,5-dicarboxylicacid 3-β-(N-benzyl-N-methylamino)ethyl ester 5-methyl ester]
- response vs control in vivo at 25 mg/kg [1]: 70%
- response vs control in vivo at 25 mg/kg [2]: 76%
- response vs control in vivo at 25 mg/kg [3]: 75%
- response vs control in vivo at 25 mg/kg [4]: 92%
- response vs control in vivo at 25 mg/kg [5]: 102%
- response vs control in vivo at 25 mg/kg [6]: 70%
- Duration 50% recovery: 5.8 h

Structure (SMILES): COC(=O)C1=C(C)NC(C)=C(C(=O)OCCN(C)Cc2ccccc2)C1c1cc(C#N)ccn1 (stereo not drawn) [(3), 2,6-Dimethyl-4-(4-cyano-2-pyridyl)-1,4-dihydropyridyne-3,5-dicarboxylicacid 3-β-(N-benzyl-N-methylamino)ethyl ester 5-methyl ester]
- response vs control in vivo at 25 mg/kg [1]: 61%
- response vs control in vivo at 25 mg/kg [2]: 66%
- response vs control in vivo at 25 mg/kg [3]: 74%
- response vs control in vivo at 25 mg/kg [4]: 82%
- response vs control in vivo at 25 mg/kg [5]: 95%
- response vs control in vivo at 25 mg/kg [6]: 61%
- Duration 50% recovery: 7.0 h

Structure (SMILES): COC(=O)C1=C(C)NC(C)=C(C(=O)OCCN(C)Cc2ccccc2)C1c1cccc(Cl)n1 (stereo not drawn) [(7), 2,6-Dimethyl-4-(6-chloro-2-pyridyl)-1,4-dihydropyridine-3,5-dicarboxylic a cid 3-β-(N-benzyl-N-methylamino)ethyl ester 5-methyl ester]
- response vs control in vivo at 25 mg/kg [1]: 83%
- response vs control in vivo at 25 mg/kg [2]: 84%
- response vs control in vivo at 25 mg/kg [3]: 87%
- response vs control in vivo at 25 mg/kg [4]: 93%
- response vs control in vivo at 25 mg/kg [5]: 101%
- response vs control in vivo at 25 mg/kg [6]: 83%
- Duration 50% recovery: 6.0 h

Structure (SMILES): COC(=O)C1=C(C)NC(C)=C(C(=O)OCCN(C)Cc2ccccc2)C1c1cccc(C(F)(F)F)n1 (stereo not drawn) [(9), 2,6-Dimethyl-4-(6-trifluoromethyl-2-pyridyl)-1,4-dihydropyridine-3,5-dicarboxylic acid 3-β-(N-benzyl-N-methylamino)ethyl ester 5-methyl ester]
- response vs control in vivo at 25 mg/kg [1]: 85%
- response vs control in vivo at 25 mg/kg [2]: 92%
- response vs control in vivo at 25 mg/kg [3]: 91%
- response vs control in vivo at 25 mg/kg [4]: 104%
- response vs control in vivo at 25 mg/kg [5]: 119%
- response vs control in vivo at 25 mg/kg [6]: 85%
- Duration 50% recovery: 4.6 h

Structure (SMILES): COC(=O)C1=C(C)NC(C)=C(C(=O)OCCN(C)Cc2ccccc2)C1c1cccc([N+](=O)[O-])n1 (stereo not drawn) [(10), 2,6-Dimethyl-4-(6-nitro-2-pyridyl)-1,4-dihydropyridine-3,5-dicarboxylic ac id 3-β-(N-benzyl-N-methylamino)ethyl ester 5-methyl ester]
- response vs control in vivo at 25 mg/kg [1]: 99%
- response vs control in vivo at 25 mg/kg [2]: 95%
- response vs control in vivo at 25 mg/kg [3]: 107%
- response vs control in vivo at 25 mg/kg [4]: 110%
- response vs control in vivo at 25 mg/kg [5]: 120%
- response vs control in vivo at 25 mg/kg [6]: 95%
- Duration 50% recovery: 2.4 h

Structure (SMILES): COC(=O)C1=C(C)NC(C)=C(C(=O)OCCN(C)Cc2ccccc2)C1c1cccnc1Br (stereo not shown) [(11)]
- response vs control in vivo at 25 mg/kg [1]: 83%
- response vs control in vivo at 25 mg/kg [2]: 82%
- response vs control in vivo at 25 mg/kg [3]: 87%
- response vs control in vivo at 25 mg/kg [4]: 91%
- response vs control in vivo at 25 mg/kg [5]: 97%
- response vs control in vivo at 25 mg/kg [6]: 82%
- Duration 50% recovery: 6.7 h

Structure (SMILES): COC(=O)C1=C(C)NC(C)=C(C(=O)OCCN(C)Cc2ccccc2)C1c1cccnc1C#N (stereo not drawn) [(12), 2,6-Dimethyl-4-(2-cyano-3-pyridyl)-1,4-dihydropyridine-3,5-dicarboxylic ac id 3-β-(N-benzyl-N-methylamino)ethyl ester 5-methyl ester]
- response vs control in vivo at 25 mg/kg [1]: 66%
- response vs control in vivo at 25 mg/kg [2]: 71%
- response vs control in vivo at 25 mg/kg [3]: 76%
- response vs control in vivo at 25 mg/kg [4]: 88%
- response vs control in vivo at 25 mg/kg [5]: 98%
- response vs control in vivo at 25 mg/kg [6]: 66%
- Duration 50% recovery: 5.6 h

Structure (SMILES): COC(=O)C1=C(C)NC(C)=C(C(=O)OCCN(C)Cc2ccccc2)C1c1cccnc1C(F)(F)F (stereo not drawn) [(13), 2,6-Dimethyl-4-(2-trifluoromethyl-3-pyridyl)-1,4-dihydropyridine-3,5-dicarboxylic acid 3-β-(benzyl-N-methylamino)ethyl ester 5-methyl ester]
- response vs control in vivo at 25 mg/kg [1]: 73%
- response vs control in vivo at 25 mg/kg [2]: 67%
- response vs control in vivo at 25 mg/kg [3]: 67%
- response vs control in vivo at 25 mg/kg [4]: 71%
- response vs control in vivo at 25 mg/kg [5]: 94%
- response vs control in vivo at 25 mg/kg [6]: 67%
- Duration 50% recovery: 16.2 h

Structure (SMILES): COC(=O)C1=C(C)NC(C)=C(C(=O)OCCN(C)Cc2ccccc2)C1c1cncc(Br)c1 (stereo not drawn) [(14), 2,6-Dimethyl-4-(5-bromo-3-pyridyl)-1,4-dihydropyridine-3,5-dicarboxylic ac id 3-β-(N-benzyl-N-methylamino)ethyl ester 5-methyl ester]
- response vs control in vivo at 25 mg/kg [1]: 83%
- response vs control in vivo at 25 mg/kg [2]: 91%
- response vs control in vivo at 25 mg/kg [3]: 90%
- response vs control in vivo at 25 mg/kg [4]: 90%
- response vs control in vivo at 25 mg/kg [5]: 101%
- response vs control in vivo at 25 mg/kg [6]: 83%
- Duration 50% recovery: 9.3 h

Structure (SMILES): COC(=O)C1=C(C)NC(C)=C(C(=O)OCCN(C)Cc2ccccc2)C1c1ccc(C#N)nc1 (stereo not drawn) [(15), 2,6-Dimethyl-4-(6-cyano-3-pyridyl)-1,4-dihydropyridine-3,5-dicarboxylic ac id 3-β-(N-benzyl-N-methylamino)ethyl ester 5-methyl ester]
- response vs control in vivo at 25 mg/kg [1]: 88%
- response vs control in vivo at 25 mg/kg [2]: 90%
- response vs control in vivo at 25 mg/kg [3]: 83%
- response vs control in vivo at 25 mg/kg [4]: 89%
- response vs control in vivo at 25 mg/kg [5]: 95%
- response vs control in vivo at 25 mg/kg [6]: 83%
- Duration 50% recovery: 15.1 h

Structure (SMILES): COC(=O)C1=C(C)NC(C)=C(C(=O)OCCN(C)Cc2ccccc2)C1c1ccnc(F)c1 (stereo not drawn) [(16), 2,6-Dimethyl-4-(2-fluoro-4-pyridyl)-1,4-dihydropyridine-3,5-dicarboxylic acid 3-β-(N-benzyl-N-methylamino)ethyl ester 5-methyl ester]
- response vs control in vivo at 25 mg/kg [1]: 92%
- response vs control in vivo at 25 mg/kg [2]: 94%
- response vs control in vivo at 25 mg/kg [3]: 95%
- response vs control in vivo at 25 mg/kg [4]: 98%
- response vs control in vivo at 25 mg/kg [5]: 96%
- response vs control in vivo at 25 mg/kg [6]: 92%
- Duration 50% recovery: 5.5 h

Structure (SMILES): COC(=O)C1=C(C)NC(C)=C(C(=O)OCCN(C)Cc2ccccc2)C1c1cncc(C(F)(F)F)c1 (stereo not drawn) [(17), 2,6-Dimethyl-4-(5-trifluoromethyl-3-pyridyl)-1,4-dihydropyridine-3,5-dicarboxylic acid 3-β-(N-benzyl-N-methylamino)ethyl ester 5-methyl ester]
- response vs control in vivo at 25 mg/kg [1]: 91%
- response vs control in vivo at 25 mg/kg [2]: 92%
- response vs control in vivo at 25 mg/kg [3]: 95%
- response vs control in vivo at 25 mg/kg [4]: 98%
- response vs control in vivo at 25 mg/kg [5]: 105%
- response vs control in vivo at 25 mg/kg [6]: 91%
- Duration 50% recovery: 4.2 h

Structure (SMILES): COC(=O)C1=C(C)NC(C)=C(C(=O)OCCN(C)Cc2ccccc2)C1c1cncc([N+](=O)[O-])c1 (stereo not drawn) [(18), 2,6-Dimethyl-4-(5-nitro-3-pyridyl)-1,4-dihydropyridine-3,5-dicarboxylic ac id 3-β-(N-benzyl-N-methylamino)ethyl ester 5-methyl ester]
- response vs control in vivo at 25 mg/kg [1]: 90%
- response vs control in vivo at 25 mg/kg [2]: 86%
- response vs control in vivo at 25 mg/kg [3]: 95%
- response vs control in vivo at 25 mg/kg [4]: 96%
- response vs control in vivo at 25 mg/kg [5]: 96%
- response vs control in vivo at 25 mg/kg [6]: 86%
- Duration 50% recovery: 3.7 h

Structure (SMILES): COC(=O)C1=C(C)NC(C)=C(C(=O)OCCN(C)Cc2ccccc2)C1c1ccnc(C#N)c1 (stereo not drawn) [(19), 2,6-Dimethyl-4-(2-cyano-4-pyridyl)-1,4-dihydropyridine-3,5-dicarboxylic ac id 3-β-(N-benzyl-N-methylamino)ethyl ester 5-methyl ester]
- response vs control in vivo at 25 mg/kg [1]: 75%
- response vs control in vivo at 25 mg/kg [2]: 94%
- response vs control in vivo at 25 mg/kg [3]: 100%
- response vs control in vivo at 25 mg/kg [4]: 98%
- response vs control in vivo at 25 mg/kg [5]: 99%
- response vs control in vivo at 25 mg/kg [6]: 75%
- Duration 50% recovery: 1.7 h

Structure (SMILES): COC(=O)C1=C(C)NC(C)=C(C(=O)OCCN(C)Cc2ccccc2)C1c1cccc([N+](=O)[O-])c1 (stereo not drawn) [Nic, 2,6-dimethyl-4-(3-nitrophenyl)-1,4-dihydropyridine-3,5-dicarboxylic acid 3-β-(N-benzyl-N-methylamino)ethyl ester 5-methyl ester, reference compound]
- response vs control in vivo at 25 mg/kg [1]: 62%
- response vs control in vivo at 25 mg/kg [2]: 68%
- response vs control in vivo at 25 mg/kg [3]: 76%
- response vs control in vivo at 25 mg/kg [4]: 81%
- response vs control in vivo at 25 mg/kg [5]: 96%
- response vs control in vivo at 25 mg/kg [6]: 62%
- Duration 50% recovery: 7.0 h
